Patent publication US20050234125A1, “Alpha-sulfonylamino-acetonitriles” (priority 2002, published 2005)

Row | melting point | SMILES
1 | 120 to 121 °C | CC(C#N)(COc1ccc(Cl)cc1)NS(=O)(=O)Cc1ccccc1 (centres unmarked)
2 | 119 to 120 °C | CC(C#N)(COc1ccc(Cl)cc1)S(=O)(=O)Cc1ccc(Cl)cc1 (centres unmarked)
